Measured values taken from US20200138829A1, “METHODS OF CANCER TREATMENT” (Ferro Therapeutics, Inc., priority 2017, published 2020).
Read-outs that look alike come from different tables or passages of the source.

Legend:
PSN-1 cells [1] = assay: Cell viability assay (CellTiter Glo), PSN-1; format: cell-based; settings: PSN-1 versus A549
Experimental: (§1) Cell viability assay was performed to assess the potency of the ferroptosis inducer compounds in various cancer cell lines with K-Ras mutations. […] A series of 9 different concentrations of compound stocks (500×) were created by 3-fold serial dilution in DMSO. […] After 96 hours of incubation, 50 μL of CellTiter Glo reagent (Promega) was added to each well and luminescence was measured after 10 minutes using EnVision (PerkinElmer). […] IC50, relative IC50, or % of top inhibition was calculated. Next, RSL3, ML210, Erastin, and Auranofin were tested on additional K-RAS mutant pancreatic cell lines (Panc1, Panc6.03, Panc2.13, PSN-1, and Capan-1) in Table 1.

Panc1 cells [2] = assay: Cell viability assay (CellTiter Glo), Panc1; format: cell-based; settings: Panc1 versus A549
Experimental: as §1

Panc1 cells [3] = assay: Combination proliferation assay with PKC activator, Panc1; format: cell-based
Experimental: (§2) Cell viability assay was performed to assess the potency of the ferroptosis inducer compounds in various cancer cell lines with K-Ras mutations. Cells at a density of 1,000-10,000 cells/well were seeded in 96-well plates and incubated at 37° C. overnight. A series of 9 different concentrations of compound stocks (500×) were created by 3-fold serial dilution in DMSO. These compounds were further diluted in culture media and then added to cells so that the final DMSO concentration was equal to 0.25% or less. After 96 hours of incubation, 50 μL of CellTiter Glo reagent (Promega) was added to each well and luminescence was measured after 10 minutes using EnVision (PerkinElmer). K101A (a PKC activator) was used as the reference compound titrated from top concentration of 30 μM. All compounds were tested initially from 30 μM as the top concentration in duplicates (range of 4.6 nM-30 μM). […] Data was analyzed using XL-fit software (ID Business Solutions Ltd.). IC50, relative IC50, or % of top inhibition was calculated.
(§3) Therefore, whether PKC activators synergize or antagonize with ferroptosis inducers can be tested empirically.

PSN-1 cells [4] = assay: Combination proliferation assay with PKC activator, PSN-1; format: cell-based
Experimental: as §2, §3

KP-4 cells [5] = assay: Combination proliferation assay with PKC activator, KP-4; format: cell-based
Experimental: as §2, §3

A549 cells [6] = assay: Combination proliferation assay with PKC activator, A549; format: cell-based; settings: inducer at concentration with minimal or no effect alone
Experimental: as §2, §3

A549 cells [7] = assay: Effect of ferroptosis or apoptosis inhibitor on RSL3- or Erastin-induced cell death, A549; settings: Homo sapiens, A549, read-out: reduction of cell viability compared to DMSO
Experimental: as §2
Ferroptosis inhibitors include: Ferrostatin-1 and Liproxstatin-1, inhibitors of ROS accumulation; Deferoxamine, an iron chelator; and PD146176, a 15-lipoxygenase inhibitor (see, e.g., Hofman et al., 2016, J Med Chem. March 10; 59(5):2041-53; Yang et al., 2016 Cell 26(3):165-176). […]

[8] = tested on: B cell lymphoma cell lines Mino and Namalwa; assay: Cell viability assay, B cell lymphoma cell lines compared with A549; format: cell-based; settings: Mino and Namalwa versus A549
Experimental: (§4) Cell viability assay was performed to assess the potency of the ferroptosis inducer compounds in various cancer cell lines with K-Ras mutations. […] A series of 9 different concentrations of compound stocks (500×) were created by 3-fold serial dilution in DMSO. […] After 96 hours of incubation, 50 μL of CellTiter Glo reagent (Promega) was added to each well and luminescence was measured after 10 minutes using EnVision (PerkinElmer). […] […] IC50, relative IC50, or % of top inhibition was calculated.

Panc2.13 cells [9] = assay: Combination proliferation assay with PKC activator, Panc2.13; format: cell-based
Experimental: as §2, §3

KP-4 cells [10] = assay: Effect of ferroptosis or apoptosis inhibitor on RSL3- or Erastin-induced cell death, KP-4; settings: Homo sapiens, KP-4, read-out: reduction of cell viability compared to DMSO
Experimental: as §2
Ferroptosis inhibitors include: Ferrostatin-1 and Liproxstatin-1, inhibitors of ROS accumulation; Deferoxamine, an iron chelator; and PD146176, a 15-lipoxygenase inhibitor (see, e.g., Hofman et al., 2016, J Med Chem. March 10; 59(5):2041-53; Yang et al., 2016 Cell 26(3):165-176). The apoptosis inhibitor chosen was ZVAD (see, e.g. Wu et al., 2011, Cell Death and Differentiation 18:26-37). Ferroptosis inhibitors and ZVAD were first titrated as a single agent as shown in Example 1.

Capan-1 cells [11] = assay: Combination proliferation assay with PKC activator, Capan-1; format: cell-based
Experimental: as §2, §3

Capan-1 cells [12] = assay: Cell viability assay (CellTiter Glo), Capan-1; format: cell-based; settings: Capan-1 versus A549
Experimental: as §1

Mino cell line = assay: Combination proliferation assay with PKC activator, Mino; format: cell-based
Experimental: as §2, §3
(§5) Therefore, it is of interest to test combination treatment of both classes of compounds in lymphoma cells.

[13] = tested on: K-RAS mutant pancreatic cell lines; assay: Cell viability assay, several pancreatic cell lines compared with A549; format: cell-based; settings: for potency in the pancreatic cell lines relative to A549 (in words): MiaPaCa-2 and KP-4 versus A549
Experimental: as §1

Panc2.13 cells [14] = assay: Cell viability assay (CellTiter Glo), Panc2.13; format: cell-based; settings: Panc2.13 versus A549
Experimental: as §1

[15] = tested on: A549 lung cancer cell line; assay: Cell viability assay (CellTiter Glo), A549; format: cell-based; settings: Homo sapiens; A549 lung cancer cell line; 96 hours of incubation
Experimental: as §4

[16] = tested on: KP-4 pancreatic cancer cell line; assay: Cell viability assay (CellTiter Glo), KP-4; format: cell-based; settings: Pancreatic cancer cell; KP-4; 96 hours of incubation
Experimental: as §4

[17] = tested on: MiaPaCa-2 pancreatic cancer cell line; assay: Cell viability assay (CellTiter Glo), MiaPaCa-2; format: cell-based; settings: Homo sapiens, MIA PaCa-2, 96 hours of incubation
Experimental: as §4

Namalwa cell line = assay: Combination proliferation assay with PKC activator, Namalwa; format: cell-based
Experimental: as §2, §3, §5

SMILES	synergy with K101A (PKC activators) to block proliferation (PSN-1 cells [4])	synergy when combined with K101A or K102 (KP-4 cells [5])	synergy with K101A or K102 to block proliferation (A549 cells [6])	effect on the potency of K101A or K102 (Panc2.13 cells [9])	synergy with K101A or K102 to block proliferation (Panc2.13 cells [9])	synergy with K101A or K102 to block proliferation (Capan-1 cells [11])	effect on the potency of K101A or K102 (Panc1 cells [3])	synergy with K101A or K102 to block proliferation (Panc1 cells [3])	potency in the pancreatic cell lines relative to A549 (in words) [13]	% of top inhibition by K101A or K102 in combination with the ferroptosis inducer (Panc2.13 cells [9]) [%]	% of top inhibition by K101A or K102 in combination with the ferroptosis inducer (Capan-1 cells [11]) [%]	effect on the potency of K101A or K102 (Capan-1 cells [11])	further results
CCOc1ccccc1-n1c(C(C)N2CCN(C(=O)COc3ccc(Cl)cc3)CC2)nc2ccccc2c1=O (stereo not drawn) [Erastin]	synergized	only additive effects	synergized strongly	only increased the potency	synergized	did not synergize	–	–	–	–	–	–	selectivity/sensitivity for induced cell death in comparison to A549 (PSN-1 cells [1]): ~2 fold; selectivity for induced cell death in comparison to A549 (Panc1 cells [2]): ~2 fold; synergy with K101A or K102 to block proliferation (Panc1 cells [3]; inducer up to 1 μM): No synergistic effects; cytotoxicity at 10 µM (A549 cells [7]): 50 to 60%; sensitivity to induced cell death in comparison to A549 [8]: not more sensitive; cytotoxicity at 1 µM (KP-4 cells [10]): > 90%
Cc1onc(C(=O)N2CCN(C(c3ccc(Cl)cc3)c3ccc(Cl)cc3)CC2)c1[N+](=O)[O-] [ML210]	synergized	no synergy	minor synergy	increased the potency	synergized	synergized strongly	increasing the potency	synergized	at least two orders of magnitude more potent	~80	~80	increased the potency	selectivity in comparison to A549 (Capan-1 cells [12]): no selectivity; synergy when combined with K101A or K102 (Mino cell line): minor synergy; sensitivity in comparison to A549 ([13]; range over Panc1, Panc6.03, and PSN-1): 8-30 fold; selectivity in comparison to A549 (Panc2.13 cells [14]): no selectivity
COC(=O)c1ccc([C@H]2c3[nH]c4ccccc4c3C[C@H](C(=O)OC)N2C(=O)CCl)cc1 [RSL3]	synergized	only additive effects	synergized strongly	increased the potency	synergized	synergized strongly	increasing the potency	synergized	two to three orders of magnitude more potent	~80	~80	increased the potency	IC50 [15]: 1880 nM; IC50 [16]: 2 nM; IC50 [17]: 8 nM; selective cell death in comparison to A549 ([13]; range over all five lines Panc1, Panc6.03, Panc2.13, PSN-1, Capan-1): 2-26 fold; effect of addition to K101A or K102 on potency and % of top inhibition (Namalwa cell line): improved potency and % of top inhibition
